# Like-named read-outs stand apart in the source and are kept apart here.
# Key:
# [1] = Sprague Dawley, rat, in vivo
# [2] = for Brain radioactivity level / CSF radioactivity level / Plasma radioactivity level: mean; for Brain/Plasma Ratio / CSF/Plasma Ratio: mean ± SD
# Protocol: Animals. Sprague Dawley rats were supplied by the University of Melbourne Biological Research Facility and housed in groups of 2–4 (adult) or full litters per cage (25cm x 35cm x 25cm on Breeders Choice paper bedding, made from 99% recycled paper; it is biodegradable with no added chemicals), on a 12 h light/dark cycle with ad libitum access to food (dry pellets of a fixed formulation diet for laboratory rats and mice fortified with vitamins and minerals to meet the requirements of breeding animals after the diet is autoclaved or irradiated, supplied by Speciality Feeds, Western Australia) and water. Age groups investigated (at treatment completion) were time mated pregnant females at E19 (350-400g body weight), postnatal pups at P4 and non-pregnant female adults (175-230g body weight). E19 was chosen because this is a stage of development when adequate volumes of blood and CSF can be obtained for analysis from fetal rats without pooling ( [Dziegielewska et al., 1981]) and individual pups can be injected intraperitoneally while still inside the uterine horn and kept viable for periods of time. P4 was chosen because its stage of brain development is similar to that of very prematurely born but viable human infants of 22–24 weeks gestation ( [Clancy et al., 2001]). Animal numbers were based on previous experience of such experiments and were the minimum number required to detect a significant difference between groups at P <0.05.
# Drug doses. Drug doses were selected based on use in clinical practice ( [Australian Medicines Handbook, 2019]) and adjusted for body weight.
# Experimental procedure. In acute drug experiments, a single dose was injected that included traces of [ ^3H]-labelled drug (20µCi adults, 2µCi newborns). In chronic experiments, doses of unlabelled drug were given twice daily (09.00 and 17.00h) for four days before a final injection on the 5 ^th day identical to acute experiments. In passive marker experiments, all dosing was acute and contained only the [ ^3H]- or [ ^14C]-labelled compound (20µCi adults, 2µCi newborns).
# In all experiments involving postnatal animals, injections were intraperitoneal (i.p.). In pregnant animals for fetal drug entry studies, the final injection of the radiolabelled marker was given intravenously (i.v.), as the peritoneal cavity required opening prior to the sampling period to gain access to the fetuses. For passive markers (L-glucose, sucrose and glycerol), fetal animals were individually injected i.p. while still within the uterine horn. All experiments took place between 09.00 and 15.00h. All pregnancy studies were completed with a single treatment group on one day. Postnatal groups were conducted with a single treatment group on one day or with the chronic group completed prior to the acute group.
# Sample collection. Samples were collected 30 minutes after the final injection. This duration was chosen partly to limit any potential metabolism of the drugs and markers used but also to allow enough time for i.p. injected markers to reach the blood stream and, from there, to access the brain parenchyma across brain barriers, as well as to limit the CSF sink effect that could influence drug levels ( [Bito et al., 1966]). Thirty minutes is also within the half-life of these drugs ( [Adedoyin et al., 1987]; [Harrison & Gibaldi, 1976]; Lin & Levy, 1963). The other reason a 30-minute duration was chosen is that in the case of exposed fetal rat pups, it is difficult to maintain them in a reasonable physiological state for long periods due to deterioration of placental perfusion. Therefore, for comparative purposes, all studies were conducted at the same time.
# For adult and newborn (P4) experiments, animals were terminally anaesthetized using inhaled isofluorane (IsoFlo 100% w/w, Abbott Laboratories).
# [3] = choroid plexus (lateral ventricular), E19
# [4] = choroid plexus (lateral ventricular), P4
# [5] = choroid plexus (lateral ventricular), adult
# [6] = E19 fetuses, acute, 30 min - […] after administration
# [7] = E19 fetuses, acute, listed as cimetidine
# [8] = E19 fetuses, chronic (twice daily over five days), 30 min - […] after final dose
# [9] = P4, acute, 30 min, listed as cimetidine
# [10] = P4, chronic i.p. (twice daily over five days), 30 min after final dose
# [11] = adult, acute, 30 min, listed as cimetidine
# [12] = adult, chronic i.p. (twice daily over five days), 30 min after final dose
compound,measurement,setting,value
CN/C(=N/CCSCc1nc[nH]c1C)NC#N [Cimetidine],"abcc3 expression, fold change chronic vs acute","abcc3 (MRP3); brain cortex, E19",0.81 fold
same,"abcc3 expression, fold change chronic vs acute","abcc3 (MRP3); brain cortex, P4",1.12 fold
same,"abcc3 expression, fold change chronic vs acute","abcc3 (MRP3); brain cortex, adult",1.18 fold
same,"abcc3 expression, fold change chronic vs acute",abcc3 (MRP3); [3],1.46 fold
same,"abcc3 expression, fold change chronic vs acute",abcc3 (MRP3); [4],1.05 fold
same,"abcc3 expression, fold change chronic vs acute",abcc3 (MRP3); [5],1.12 fold
same,"abcc3 expression, fold change chronic vs acute","abcc3 (MRP3); placenta, E19",0.96 fold
same,"abcb1a expression, fold change chronic vs acute","abcb1a (PGP); brain cortex, E19",0.93 fold
same,"abcb1a expression, fold change chronic vs acute","abcb1a (PGP); brain cortex, P4",↑ 1.23 fold
same,"abcb1a expression, fold change chronic vs acute","abcb1a (PGP); brain cortex, adult",1.06 fold
same,"abcb1a expression, fold change chronic vs acute",abcb1a (PGP); [3],1.73 fold
same,"abcb1a expression, fold change chronic vs acute",abcb1a (PGP); [4],1.72 fold
same,"abcb1a expression, fold change chronic vs acute",abcb1a (PGP); [5],1.06 fold
same,"abcb1a expression, fold change chronic vs acute","abcb1a (PGP); placenta, E19",0.86 fold
same,"abcc5 expression, fold change chronic vs acute","abcc5 (MRP5); brain cortex, E19",0.97 fold
same,"abcc5 expression, fold change chronic vs acute","abcc5 (MRP5); brain cortex, P4",↑ 1.24 fold
same,"abcc5 expression, fold change chronic vs acute","abcc5 (MRP5); brain cortex, P4, listed as cimetidine",1.24 fold
same,"abcc5 expression, fold change chronic vs acute","abcc5 (MRP5); brain cortex, adult",1.11 fold
same,"abcc5 expression, fold change chronic vs acute",abcc5 (MRP5); [3],1.19 fold
same,"abcc5 expression, fold change chronic vs acute",abcc5 (MRP5); [4],0.86 fold
same,"abcc5 expression, fold change chronic vs acute",abcc5 (MRP5); [5],1.21 fold
same,"abcc5 expression, fold change chronic vs acute","abcc5 (MRP5); placenta, E19",1.14 fold
same,"abcc2 expression, fold change chronic vs acute","abcc2 (MRP2); brain cortex, E19",0.96 fold
same,"abcc2 expression, fold change chronic vs acute","abcc2 (MRP2); brain cortex, P4",↓ 0.92 fold
same,"abcc2 expression, fold change chronic vs acute","abcc2 (MRP2); brain cortex, adult",1.00 fold
same,"abcc2 expression, fold change chronic vs acute",abcc2 (MRP2); [3],1.19 fold
same,"abcc2 expression, fold change chronic vs acute",abcc2 (MRP2); [4],1.04 fold
same,"abcc2 expression, fold change chronic vs acute",abcc2 (MRP2); [5],0.86 fold
same,"abcc2 expression, fold change chronic vs acute","abcc2 (MRP2); placenta, E19",*10.07 fold
same,"abcb1b expression, fold change chronic vs acute","abcb1b (PGP); brain cortex, E19",1.09 fold
same,"abcb1b expression, fold change chronic vs acute","abcb1b (PGP); brain cortex, P4",1.03 fold
same,"abcb1b expression, fold change chronic vs acute","abcb1b (PGP); brain cortex, adult",0.87 fold
same,"abcb1b expression, fold change chronic vs acute",abcb1b (PGP); [3],1.66 fold
same,"abcb1b expression, fold change chronic vs acute",abcb1b (PGP); [4],1.00 fold
same,"abcb1b expression, fold change chronic vs acute",abcb1b (PGP); [5],1.15 fold
same,"abcb1b expression, fold change chronic vs acute","abcb1b (PGP); placenta, E19",1.00 fold
same,restriction of transfer by the placenta,[1],~70%
same,"abcg2 expression, fold change chronic vs acute","abcg2 (BCRP); brain cortex, E19",0.80 fold
same,"abcg2 expression, fold change chronic vs acute","abcg2 (BCRP); brain cortex, P4",1.11 fold
same,"abcg2 expression, fold change chronic vs acute","abcg2 (BCRP); brain cortex, adult",0.98 fold
same,"abcg2 expression, fold change chronic vs acute",abcg2 (BCRP); [3],1.01 fold
same,"abcg2 expression, fold change chronic vs acute",abcg2 (BCRP); [4],0.73 fold
same,"abcg2 expression, fold change chronic vs acute",abcg2 (BCRP); [5],0.91 fold
same,"abcg2 expression, fold change chronic vs acute","abcg2 (BCRP); placenta, E19",1.24 fold
same,transfer from maternal blood to fetal brain,"[2]; E19, acute",17%
same,Brain radioactivity level,[2]; [6],7.3 DPM/µg
same,CSF radioactivity level,[2]; [6],7.0 DPM/µl
same,Plasma radioactivity level,[2]; [6],13.0 DPM/µl
same,Brain/Plasma Ratio,"[2]; E19 fetuses, acute",56 ± 10%
same,CSF/Plasma Ratio,"[2]; E19 fetuses, acute",54 ± 11%
same,Brain/Plasma Ratio,[2]; [7],56%
same,CSF/Plasma Ratio,[2]; [7],54%
same,Brain radioactivity level,[2]; [8],8.8 DPM/µg
same,CSF radioactivity level,[2]; [8],8.4 DPM/µl
same,Plasma radioactivity level,[2]; [8],13.3 DPM/µl
same,Brain/Plasma Ratio,"[2]; E19 fetuses, chronic",65 ± 19%
same,CSF/Plasma Ratio,"[2]; E19 fetuses, chronic",63 ± 15%
same,Brain radioactivity level,"[2]; P4, acute i.p., 30 min",37.2 DPM/µg
same,CSF radioactivity level,"[2]; P4, acute i.p., 30 min",24.3 DPM/µl
same,Plasma radioactivity level,"[2]; P4, acute i.p., 30 min",310.9 DPM/µl
same,Brain/Plasma Ratio,"[2]; P4, acute, 30 min",12 ± 1%
same,CSF/Plasma Ratio,"[2]; P4, acute, 30 min",8 ± 1%
same,Brain/Plasma Ratio,[2]; [9],12%
same,CSF/Plasma Ratio,[2]; [9],8%
same,Brain radioactivity level,[2]; [10],45.7 DPM/µg
same,CSF radioactivity level,[2]; [10],27.8 DPM/µl
same,Plasma radioactivity level,[2]; [10],373.2 DPM/µl
same,Brain/Plasma Ratio,"[2]; P4, chronic, 30 min",12 ± 2%
same,CSF/Plasma Ratio,"[2]; P4, chronic, 30 min",7 ± 1%
same,transfer into maternal brain (brain/maternal blood),[2]; acute,13%
same,Brain radioactivity level,"[2]; adult, acute i.p., 30 min",6.2 DPM/µg
same,CSF radioactivity level,"[2]; adult, acute i.p., 30 min",6.0 DPM/µl
same,Plasma radioactivity level,"[2]; adult, acute i.p., 30 min",55.9 DPM/µl
same,Brain/Plasma Ratio,"[2]; adult, acute, 30 min",13 ± 5%
same,CSF/Plasma Ratio,"[2]; adult, acute, 30 min",12 ± 3%
same,Brain/Plasma Ratio,[2]; [11],13%
same,CSF/Plasma Ratio,[2]; [11],12%
same,Brain radioactivity level,[2]; [12],11.6 DPM/µg
same,CSF radioactivity level,[2]; [12],11.1 DPM/µl
same,Plasma radioactivity level,[2]; [12],90.7 DPM/µl
same,Brain/Plasma Ratio,"[2]; adult, chronic, 30 min",13 ± 1%
same,CSF/Plasma Ratio,"[2]; adult, chronic, 30 min",12 ± 1%
same,"abcc1 expression, fold change chronic vs acute","abcc1 (MRP1); brain cortex, E19",1.00 fold
same,"abcc1 expression, fold change chronic vs acute","abcc1 (MRP1); brain cortex, P4",1.11 fold
same,"abcc1 expression, fold change chronic vs acute","abcc1 (MRP1); brain cortex, adult",1.20 fold
same,"abcc1 expression, fold change chronic vs acute",abcc1 (MRP1); [3],1.28 fold
same,"abcc1 expression, fold change chronic vs acute",abcc1 (MRP1); [4],0.96 fold
same,"abcc1 expression, fold change chronic vs acute",abcc1 (MRP1); [5],1.06 fold
same,"abcc4 expression, fold change chronic vs acute","abcc4 (MRP4); brain cortex, E19",0.98 fold
same,"abcc4 expression, fold change chronic vs acute","abcc4 (MRP4); brain cortex, P4",1.18 fold
same,"abcc4 expression, fold change chronic vs acute","abcc4 (MRP4); brain cortex, adult",1.00 fold
same,"abcc4 expression, fold change chronic vs acute",abcc4 (MRP4); [3],1.17 fold
same,"abcc4 expression, fold change chronic vs acute",abcc4 (MRP4); [4],1.12 fold
same,"abcc4 expression, fold change chronic vs acute",abcc4 (MRP4); [5],↑ 1.49 fold
same,"abcc4 expression, fold change chronic vs acute","abcc4 (MRP4); placenta, E19",0.69 fold
